Data taken from paper PMC3261769 (Journal of Medicinal Chemistry, 2011).
Blank lines part the entries; values can stand above or below the molecule they belong to.

Key:
[1] = iv and os pharmacokinetics in mice; type: in vivo; settings: male, CD-1, mouse, plasma, 5 mg/kg
[2] = system: HAOSMC human aortic smooth muscle cells; settings: read-out: IC50 ± SD HAOSMC; ref [16]; cited from earlier work
[3] = system: A10 rat embryonic aortic smooth muscle cells; settings: read-out: IC50 ± SD A10; ref [16]; cited from earlier work
[4] = system: PtK2 kidney epithelial cells; settings: read-out: IC50 ± SD PtK2; ref [16]; cited from earlier work
[5] = system: MCF-7 human breast carcinoma cells; settings: read-out: IC50 ± SD MCF-7; ref [16]; cited from earlier work
[6] = system: HUVEC human umbilical vein endothelial cells; settings: read-out: IC50 ± SD HUVEC; ref [16]; cited from earlier work
tubulin = test: Inhibition of tubulin polymerization; type: biochemical; settings: read-out: tubulin assembly inhibition; footnotes of Table 4
OVCAR-3 cells = test: Growth inhibition of OVCAR-3 cells; type: cell-based, human
A2780wt cells = test: Growth inhibition of A2780wt cells; type: cell-based, human; settings: read-out: IC50 ± SD A2780wt
[7] = system: A2780-CIS cells (cisplatin-resistant); test: Growth inhibition of A2780-CIS cells; type: cell-based, human

- clearance [1]: 28.6 mL/min/kg
Compound: COc1cc(Sc2c(-c3cc[nH]c3)[nH]c3ccccc23)cc(OC)c1OC [Compound 5, 2-(1H-Pyrrol-3-yl)-3-[(3′,4′,5′-trimethoxyphenyl)thio]-1H-indole]

Compound: CC(=O)O[C@H]1C(=O)[C@@]2(C)[C@H]([C@H](OC(=O)c3ccccc3)[C@]3(O)C[C@H](OC(=O)[C@H](O)[C@@H](NC(=O)c4ccccc4)c4ccccc4)C(C)=C1C3(C)C)[C@]1(OC(C)=O)CO[C@@H]1C[C@@H]2O [PTX, paclitaxel]
- IC50 [2]: 6 ± 6 nM
- IC50 [3]: 38 ± 10 nM
- IC50 [4]: 21 ± 8 nM
- IC50 [5]: 3 ± 0.5 nM
- IC50 [6]: 7 ± 4 nM

- IC50 (tubulin): 3100 nM
Compound: CCC1=C[C@@H]2CN(C1)Cc1c([nH]c3ccccc13)[C@@](C(=O)OC)(c1cc3c(cc1OC)N(C)[C@H]1[C@@](O)(C(=O)OC)[C@H](OC(C)=O)[C@]4(CC)C=CCN5CC[C@]31[C@@H]54)C2 [VRB, vinorelbine]

Compound: N.N.[Cl][Pt][Cl] [cisplatin]
- RI-2 (Resistant Index-2) (OVCAR-3 cells; IC50 in OVCAR-3 divided by IC50 in A2780wt): 3.7
- IC50 (OVCAR-3 cells; read-out: IC50 ± SD OVCAR-3): 1820 ± 254 nM
- IC50 (A2780wt cells): 485 ± 60 nM
- RI-1 (Resistant Index-1) ([7]; IC50 in A2780-CIS divided by IC50 in A2780wt): 18.5
- IC50 ([7]; read-out: IC50 ± SD A2780-CIS): 8980 ± 565 nM
